From patent publication US9260425B2 (Genetech, Inc., priority 2011, dated 2016)

target: Pim-1 (Homo sapiens (Human), UniProt P11309); experiment: Pim kinase binding activity assay (Example 901), PIM-1 enzyme, Caliper microfluidic peptide phosphorylation; assay type: biochemical; settings: 20 pM PIM-1, 10 μM ATP, 1 μM FAM-peptide, 90 minutes at room temperature
Method in brief: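 The readout was microfluidic mobility-shift separation of a FAM-tagged Pim-specific peptide, excited at 488 nm and read at 530 nm, with Ki calculated from percent conversion. Reactions held 20 pM PIM-1, 1 μM peptide and 10 μM ATP in pH 7.2 HEPES/MgCl2/DTT buffer, ran 90 min at room temperature and were stopped with EDTA.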

Pim-1, sequence (P11309 whole entry): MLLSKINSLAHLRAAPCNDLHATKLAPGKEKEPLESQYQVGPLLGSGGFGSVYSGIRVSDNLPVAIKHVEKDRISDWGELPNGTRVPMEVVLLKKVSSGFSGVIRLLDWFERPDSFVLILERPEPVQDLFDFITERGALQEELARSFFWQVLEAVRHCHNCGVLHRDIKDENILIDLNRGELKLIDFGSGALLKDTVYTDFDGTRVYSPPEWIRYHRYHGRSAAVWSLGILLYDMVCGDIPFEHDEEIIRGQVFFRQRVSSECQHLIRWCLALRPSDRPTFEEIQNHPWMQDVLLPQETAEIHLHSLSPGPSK

| SMILES | Ki [nM] |
| --- | --- |
| O=C(NC1CCNCC1)c1cccc(-c2n[nH]c3cnc(-c4cccnc4)cc23)n1 [Example 337, N-(piperidin-4-yl)-6-(5-(pyridin-3-yl)-1H-pyrazolo[3,4-c]pyridin-3-yl)picolinamide] | 30.5 |
| c1ccc(-c2n[nH]c3cnc(-c4cncs4)cc23)nc1 [Example 338, 5-(3-(pyridin-2-yl)-1H-pyrazolo[3,4-c]pyridin-5-yl)thiazole] | 24.5 |
| CN1CCN(c2cc3c(-c4ccccc4F)n[nH]c3cn2)CC1=O [Example 339, 4-(3-(2-fluorophenyl)-1H-pyrazolo[3,4-c]pyridin-5-yl)-1-methylpiperazin-2-one] | 5500 |
| N[C@H]1CCC[C@@H](Nc2cccc(-c3n[nH]c4cnc(-c5cccnc5)cc34)n2)C1 [Example 340, (1R,3S)-N1-(6-(5-(pyridin-3-yl)-1H-pyrazolo[3,4-c]pyridin-3-yl)pyridin-2-yl)cyclohexane-1,3-diamine] | 0.044 |
| N[C@@H]1CCC[C@H](Nc2cccc(-c3n[nH]c4cnc(-c5cccnc5)cc34)n2)C1 [Example 341, (1S,3R)-N1-(6-(5-(pyridin-3-yl)-1H-pyrazolo[3,4-c]pyridin-3-yl)pyridin-2-yl)cyclohexane-1,3-diamine] | 0.077 |
| N[C@H]1CCCN(c2cccc(-c3n[nH]c4cnc(N5CCNC(=O)C5)cc34)n2)C1 [Example 345, (S)-4-(3-(6-(3-aminopiperidin-1-yl)pyridin-2-yl)-1H-pyrazolo[3,4-c]pyridin-5-yl)piperazin-2-one] | 13.7 |
| O=C1CNCCN1c1cc2c(-c3cccc(N4CCNCC4)n3)n[nH]c2cn1 [Example 346, 1-(3-(6-(piperazin-1-yl)pyridin-2-yl)-1H-pyrazolo[3,4-c]pyridin-5-yl)piperazin-2-one] | 219 |
| Fc1ccccc1-c1n[nH]c2cnc(-c3cncs3)cc12 [Example 348, 5-(3-(2-fluorophenyl)-1H-pyrazolo[3,4-c]pyridin-5-yl)thiazole] | 26.8 |
| CN1CCN(c2cc3c(-c4ccccn4)n[nH]c3cn2)CC1=O [Example 351, 1-methyl-4-(3-(pyridin-2-yl)-1H-pyrazolo[3,4-c]pyridin-5-yl)piperazin-2-one] | 4800 |

The next lines start with the values.

| Ki [nM] | SMILES |
| --- | --- |
| 12.7 | NC1CCN(C(=O)c2cccc(-c3n[nH]c4cnc(-c5cccnc5)cc34)n2)CC1 [Example 336, (4-aminopiperidin-1-yl)(6-(5-(pyridin-3-yl)-1H-pyrazolo[3,4-c]pyridin-3-yl)pyridin-2-yl)methanone] |
| 0.01 | C#Cc1ccc(-c2n[nH]c3cnc(-c4cccnc4)cc23)nc1N1CCC[C@H](N)C1 [Example 342, (S)-1-(3-ethynyl-6-(5-(pyridin-3-yl)-1H-pyrazolo[3,4-c]pyridin-3-yl)pyridin-2-yl)piperidin-3-amine] |
| 0.045 | C[C@]1(N)CCCN(c2cccc(-c3n[nH]c4cnc(-c5cccnc5)cc34)n2)C1 [Example 343, (S)-3-methyl-1-(6-(5-(pyridin-3-yl)-1H-pyrazolo[3,4-c]pyridin-3-yl)pyridin-2-yl)piperidin-3-amine] |
| 3.9 | NC(=O)[C@@H]1CCCN1c1ccc(-c2n[nH]c3cnc(-c4cccnc4)cc23)nc1 [Example 344, (S)-1-(6-(5-(pyridin-3-yl)-1H-pyrazolo[3,4-c]pyridin-3-yl)pyridin-3-yl)pyrrolidine-2-carboxamide] |
| 0.11 | C[C@@]1(N)CCCN(c2cccc(-c3n[nH]c4cnc(-c5cccnc5)cc34)n2)C1 [Example 347, (R)-3-methyl-1-(6-(5-(pyridin-3-yl)-1H-pyrazolo[3,4-c]pyridin-3-yl)pyridin-2-yl)piperidin-3-amine] |
| 0.025 | N[C@@H]1CCC[C@@H](Nc2cccc(-c3n[nH]c4cnc(-c5cccnc5)cc34)n2)C1 [Example 352, (1R,3R)-N1-(6-(5-(pyridin-3-yl)-1H-pyrazolo[3,4-c]pyridin-3-yl)pyridin-2-yl)cyclohexane-1,3-diamine] |
| 0.397 | N[C@H]1CCC[C@H](Nc2cccc(-c3n[nH]c4cnc(-c5cccnc5)cc34)n2)C1 [Example 353, (1S,3S)-N1-(6-(5-(pyridin-3-yl)-1H-pyrazolo[3,4-c]pyridin-3-yl)pyridin-2-yl)cyclohexane-1,3-diamine] |
